Our source for the GI50 and IC50 values is patent US9938273B2 (Plexxikon Inc., priority 2015, dated 2018).

One may read the IC50 as the concentration needed to halve the response being measured.

Test [1] concerns the target T1, BA/F3-FLT3-ITD + D835Y cells (Homo sapiens, UniProt P36888, D835Y, cells depend on it, form not given).
T1 sequence (P36888 1-993 D835Y): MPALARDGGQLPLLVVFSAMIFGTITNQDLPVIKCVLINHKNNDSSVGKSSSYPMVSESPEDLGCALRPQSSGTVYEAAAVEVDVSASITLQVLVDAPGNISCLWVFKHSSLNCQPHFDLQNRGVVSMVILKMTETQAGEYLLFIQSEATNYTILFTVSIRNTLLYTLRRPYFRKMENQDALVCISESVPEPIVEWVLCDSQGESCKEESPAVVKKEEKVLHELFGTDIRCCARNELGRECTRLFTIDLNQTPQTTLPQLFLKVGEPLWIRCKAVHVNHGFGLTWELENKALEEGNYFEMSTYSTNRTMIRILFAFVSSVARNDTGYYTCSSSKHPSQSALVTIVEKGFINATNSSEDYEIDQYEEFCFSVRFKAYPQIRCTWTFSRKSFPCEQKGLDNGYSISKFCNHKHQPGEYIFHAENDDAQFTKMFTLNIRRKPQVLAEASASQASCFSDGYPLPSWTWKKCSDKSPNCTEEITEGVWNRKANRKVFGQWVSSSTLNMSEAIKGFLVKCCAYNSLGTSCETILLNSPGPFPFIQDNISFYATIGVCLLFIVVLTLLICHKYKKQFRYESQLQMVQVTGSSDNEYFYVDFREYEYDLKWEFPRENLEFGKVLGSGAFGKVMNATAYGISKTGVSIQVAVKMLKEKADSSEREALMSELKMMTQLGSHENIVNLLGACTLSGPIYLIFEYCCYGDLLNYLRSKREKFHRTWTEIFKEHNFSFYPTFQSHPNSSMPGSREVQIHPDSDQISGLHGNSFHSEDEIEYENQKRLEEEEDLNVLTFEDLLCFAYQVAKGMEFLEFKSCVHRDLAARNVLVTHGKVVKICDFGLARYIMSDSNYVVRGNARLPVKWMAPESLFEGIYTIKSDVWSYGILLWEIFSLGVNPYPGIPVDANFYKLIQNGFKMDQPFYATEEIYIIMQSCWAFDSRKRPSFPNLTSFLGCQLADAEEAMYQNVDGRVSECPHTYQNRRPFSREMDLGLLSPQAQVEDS
As to the kind of experiment: Cell proliferation assay (CellTiter-Glo), engineered BA/F3 cells. It counts as cell-based, murine. As to conditions: BaF3 FLT3 ITD/D835Y cells, 3d-Growth; read-out: BaF3_FLT3 ITD/D835Y 3d-Growth: IC50. From the text:
(§1) The FLT3 inhibitors may be assessed using the MOLM-14, Acute Myeloid Leukemia cell line that endogenously expresses FLT3 ITD or derivatives of the human FLT3 AML cell line which acquired the D835Y (activation loop) of F691L (gatekeeper) mutation after selection in escalating doses of the FLT3 Inhibitor AC220. FLT3 inhibitors may also be assessed using cells that are engineered to express mutant FLT3. For engineered cells, murine Ba/F3 cells were transfected with full-length FLT3 ITD/D835Y mutations. The parental BA/F3 cells are dependent upon Interleukin-3 (IL-3) for survival, and introduction of the FLT3 constructs rendered these cells dependent upon FLT3 kinase activity when cultured in the absences of IL-3. Engineered BA/F3 cell growth assays can be performed in either the […] of IL-3, to assess the compound inhibition of FLT3 or to detect the presence of off-target activity, respectively. Inhibitors of FLT3 kinase activity reduce or eliminate the FLT3 oncogenic signaling, resulting in reduced cell proliferation. This inhibition is measured as a function of compound concentration to asses IC50 values.
(§2) Cell lines used in proliferation assays are as follows in Table 3:
(§3) Cells were seeded at 1×10^4 cells per well of a 96 well cell culture plate in 50 μl of cell culture medium. Compounds were dissolved in DMSO, typically at a concentration of 0.5 mM and were serially diluted 1:3 for a total of eight points and added to the cells to final concentrations of […], 0.0041, 0.0014 and 0.00046 μM in 100 μl cell culture medium (final concentration 0.2% DMSO). […] The cells were incubated at 37° C., 5% CO2 for three days. CellTiter-Glo Buffer (Promega Cell Viability Assay catalog #G7573) and substrate were equilibrated to room temperature, and enzyme/substrate Recombinant Firefly Luciferase/Beetle Luciferin was reconstituted. The cell plates were equilibrated to room temperature for 30 minutes, then lysed by addition of an equivalent volume of the Celltiter-Glo Reagent. The plate was mixed for 10 minutes on a plate shaker to lyse the cells. The plates were read on a Tecan M1000 using Luminescence protocol modified to read 0.1 s per well. The luminescence reading assesses the ATP content, which correlates directly with cell number such that the reading as a function of compound concentration was used to determine the IC50 value.

Test [2] has as its system MOLM-14 D835Y cells, FLT3 ITD and FLT3 D835Y. As to the kind of experiment: Cell proliferation assay (CellTiter-Glo), MOLM-14 D835Y. Format: cell-based. The note with it: Homo sapiens, 72 h, 3d-Growth, GMean. In outline:
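Three-day growth at 37 °C, 5% CO2 under compound (1 μM top final, 1:3 dilutions, eight points, 0.2% DMSO), read as ATP luminescence by CellTiter-Glo for IC50. Cells: MOLM-14 with FLT3 ITD plus D835Y or F691L, and IL-3-deprived Ba/F3 transfected with FLT3 ITD/D835Y, 1×10^4 per well.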

Test [3] has as its system MOLM-14 F691L cells, FLT3 ITD and FLT3 F691L. As to the kind of experiment: Cell proliferation assay (CellTiter-Glo), MOLM-14 F691L. Format: cell-based. As to conditions: Homo sapiens, 72 h, 3d-Growth, GMean.
Description: as §1, §2, §3
In general terms: Cellular ATP, detected with luciferase, serves as a proxy for viable cell number.

In the case of `O=C(c1cccc(-c2cnc3[nH]c(-c4ccccc4)cc3c2)n1)N1CCC(n2ccnc2)C1` (centres unmarked) [Compound P-0097, (3-imidazol-1-ylpyrrolidin-1-yl)-[6-(2-phenyl-1H-pyrrolo[2,3-b]pyridin-5-yl)-2-pyridyl]methanone], in test [1], the GI50 is 0.0001 to 10 µM. The compound further displayed an IC50 in test [2] of 0.0001 to 10 µM.

`N#CCCNC(=O)c1cccc(-c2cnc3[nH]c(-c4ccccc4)cc3c2)n1` [Compound P-0099, N-(2-cyanoethyl)-6-(2-phenyl-1H-pyrrolo[2,3-b]pyridin-5-yl)pyridine-2-carboxamide]: the GI50 in test [1] was 0.0001 to 10 µM. This compound showed an IC50 in test [2] of 0.0001 to 10 µM.

Take `CC(C)(C#N)CNC(=O)c1cccc(-c2cnc3[nH]c(-c4ccccc4)cc3c2)n1` [Compound P-0100, N-(2-cyano-2-methyl-propyl)-6-(2-phenyl-1H-pyrrolo[2,3-b]pyridin-5-yl)pyridine-2-carboxamide]: the GI50 in test [1] was in the range of 0.0001 to 10 µM. In addition, the IC50 in test [2] lay in the range of 0.0001 to 10 µM.

As for `N#CC1CCN(C(=O)c2cccc(-c3cnc4[nH]c(-c5ccccc5)cc4c3)n2)C1` (centres unmarked) [Compound P-0105, 1-[6-(2-phenyl-1H-pyrrolo[2,3-b]pyridin-5-yl)pyridine-2-carbonyl]pyrrolidine-3-carbonitrile], the GI50 in test [1] fell in the range of 0.0001 to 10 µM. The IC50 in test [2] was 0.0001 to 10 µM.

Turning to `CS(=O)(=O)N1CCC(NS(=O)(=O)c2cccc(-c3cnc4[nH]c(-c5ccccc5)cc4c3)n2)C1` (centres unmarked) [Compound P-0107, N-(1-methylsulfonylpyrrolidin-3-yl)-6-(2-phenyl-1H-pyrrolo[2,3-b]pyridin-5-yl)pyridine-2-sulfonamide], the GI50 in test [1] lay within 0.0001 to 10 µM. The compound also came in with an IC50 in test [2] of 0.0001 to 10 µM.

On to `N#C[C@H]1CCN(C(=O)c2cccc(-c3cnc4[nH]c(-c5ccccc5)cc4c3)n2)C1` [Compound P-0117, (3S)-1-[6-(2-phenyl-1H-pyrrolo[2,3-b]pyridin-5-yl)pyridine-2-carbonyl]pyrrolidine-3-carbonitrile], for which the GI50 in test [1] fell in the range of 0.0001 to 10 µM. In addition, the concentration for half-maximal inhibition (IC50) in test [2] fell in the range of 0.0001 to 10 µM.

For the compound `CN(CCC#N)C(=O)c1cccc(-c2cnc3[nH]c(-c4ccccc4)cc3c2)n1` [Compound P-0119, N-(2-cyanoethyl)-N-methyl-6-(2-phenyl-1H-pyrrolo[2,3-b]pyridin-5-yl)pyridine-2-carboxamide], in test [1], the GI50 lay in the range of 0.0001 to 10 µM. In test [2], the IC50 fell in the range of 0.0001 to 10 µM.

Consider `N#CC1CCN(C(=O)c2cccc(-c3cnc4[nH]c(C5=CCCCC5)cc4c3)n2)C1` (centres unmarked) [Compound P-0120, 1-[6-[2-(cyclohexen-1-yl)-1H-pyrrolo[2,3-b]pyridin-5-yl]pyridine-2-carbonyl]pyrrolidine-3-carbonitrile], for which the GI50 in test [1] was 0.0001 to 10 µM. Besides, the IC50 in test [2] fell in the range of 0.0001 to 10 µM.

Turning to `N#CC1CCN(S(=O)(=O)c2cccc(-c3cnc4[nH]c(-c5ccccc5)cc4c3)n2)C1` (centres unmarked) [Compound P-0121, 1-[[6-(2-phenyl-1H-pyrrolo[2,3-b]pyridin-5-yl)-2-pyridyl]sulfonyl]pyrrolidine-3-carbonitrile], the GI50 in test [1] lay within 0.0001 to 10 µM. For the same compound, in test [2], the IC50 is 0.0001 to 10 µM.

For `N#CCCNC(=O)c1cccc(-c2cnc3[nH]c(-c4ccccc4)c(Cl)c3c2)n1` [Compound P-0125, 6-(3-chloro-2-phenyl-1H-pyrrolo[2,3-b]pyridin-5-yl)-N-(2-cyanoethyl)pyridine-2-carboxamide], in test [1], the GI50 lay in the range of 0.0001 to 10 µM. In addition, in test [2], the IC50 is 0.0001 to 10 µM.

For `CC(C)(C#N)CNC(=O)c1cccc(-c2cnc3[nH]c(-c4ccccc4)c(Br)c3c2)n1` [Compound P-0126, 6-(3-bromo-2-phenyl-1H-pyrrolo[2,3-b]pyridin-5-yl)-N-(2-cyano-2-methyl-propyl)pyridine-2-carboxamide], the GI50 in test [1] was in the range of 0.0001 to 10 µM. This compound showed an IC50 in test [2] of 0.0001 to 10 µM.

Take `CC(C)(C#N)CNC(=O)c1cccc(-c2cnc3[nH]c(-c4ccccc4)c(I)c3c2)n1` [Compound P-0127, N-(2-cyano-2-methyl-propyl)-6-(3-iodo-2-phenyl-1H-pyrrolo[2,3-b]pyridin-5-yl)pyridine-2-carboxamide]: the GI50 in test [1] was in the range of 0.0001 to 10 µM. This compound also showed an IC50 in test [2] of 0.0001 to 10 µM.

Regarding `CC1(C)CC=C(c2cc3cc(-c4cccc(C(=O)N5CCC(C#N)C5)n4)cnc3[nH]2)CC1` (centres unmarked) [Compound P-0131, 1-[6-[2-(4,4-dimethylcyclohexen-1-yl)-1H-pyrrolo[2,3-b]pyridin-5-yl]pyridine-2-carbonyl]pyrrolidine-3-carbonitrile], the IC50 in test [2] and in test [3] was 0.0001 to 10 µM throughout.

For the compound `N#CC1CCN(C(=O)c2cccc(-c3cnc4[nH]c(C5=CCOCC5)cc4c3)n2)C1` (centres unmarked) [Compound P-0132, 1-[6-[2-(3,6-dihydro-2H-pyran-4-yl)-1H-pyrrolo[2,3-b]pyridin-5-yl]pyridine-2-carbonyl]pyrrolidine-3-carbonitrile], the IC50 in test [2] and in test [3] was 0.0001 to 10 µM in each case.

Take `N#CC1CCN(C(=O)c2cccc(-c3cnc4[nH]c(-c5cnn(C(F)F)c5)cc4c3)n2)C1` (centres unmarked) [Compound P-0134, 1-[6-[2-[1-(difluoromethyl)pyrazol-4-yl]-1H-pyrrolo[2,3-b]pyridin-5-yl]pyridine-2-carbonyl]pyrrolidine-3-carbonitrile]: the IC50 in test [2] and in test [3] was 0.0001 to 10 µM in each case.

Turning to `N#CC1CCN(C(=O)c2cccc(-c3cnc4[nH]c(C5=CCN(C(=O)C6CC6)C5)cc4c3)n2)C1` (centres unmarked) [Compound P-0136, 1-[6-[2-[1-(cyclopropanecarbonyl)-2,5-dihydropyrrol-3-yl]-1H-pyrrolo[2,3-b]pyridin-5-yl]pyridine-2-carbonyl]pyrrolidine-3-carbonitrile], the IC50 in test [2] and in test [3] was 0.0001 to 10 µM each time.

For `N#CC1(CNC(=O)c2cccc(-c3cnc4[nH]c(-c5ccccc5)cc4c3)n2)CC1` [Compound P-0137, N-[(1-cyanocyclopropyl)methyl]-6-(2-phenyl-1H-pyrrolo[2,3-b]pyridin-5-yl)pyridine-2-carboxamide], the IC50 in test [2] and in test [3] was 0.0001 to 10 µM each time.

On to `CC(C)(C#N)CNC(=O)c1cccc(-c2cnc3[nH]c(-c4ccccc4)c(Cl)c3c2)n1` [Compound P-0138, 6-(3-chloro-2-phenyl-1H-pyrrolo[2,3-b]pyridin-5-yl)-N-(2-cyano-2-methyl-propyl)pyridine-2-carboxamide], for which the IC50 in test [2] and in test [3] was 0.0001 to 10 µM in each case.

Turning to `CC(C)(C)NC(=O)c1cccc(-c2cnc3[nH]c(-c4ccccc4)cc3c2)n1` [Compound P-0140, N-tert-butyl-6-(2-phenyl-1H-pyrrolo[2,3-b]pyridin-5-yl)pyridine-2-carboxamide], the IC50 in test [2] and in test [3] was 0.0001 to 10 µM throughout.
